In patent publication US11945790B2 (ImmunoMolecular Therapeutics, Inc., priority 2020, dated 2024):

Target: HLA-DQ2 (Homo sapiens, UniProt P01909+P01920)
Assay: Inhibition of IL-2 secretion by TCR transductants stimulated by α-gliadin peptides presented by HLA-DQ2 expressing K562 cells (ELISA)
Format: cell-based
Details: inhibition of IL-2 secretion at 200 uM; tested as trans racemate unless otherwise noted; lines naming several Examples = stereoisomer mixture of those Examples
Protocol: Three commercially available analogues of the DQ2 binding molecules of the invention were tested for their ability to inhibit stimulation of T cell receptor (TCR) transductants in the presence of HLA-DQ2 expressing cells presenting known α-gliadin epitopes.
Using a previously published in vitro assay (Ostrov D, et al. Methyldopa blocks MHC class II binding to disease specific antigens in autoimmune diabetes. J Clin Invest. 2018:128 (5)) the ability of these DQ2 binding analogues to inhibit interleukin-2 (IL-2) secretion by TCR transductants stimulated by α-gliadin peptides presented by HLA-DQ2 was determined. Individual TCR transductants (recognizing a I-gliadin or a II-gliadin) were cultured with a gliadin peptide plus the small molecule analogues in the presence of HLA-DQ2 expressing K562 cells serving as antigen presenting cells. TCR transductants cultured with no gliadin peptide served as the negative control, and incubation with an anti-CD3 antibody (eBioscience; clone 2C11) served as a positive control for the TCR transductant. Secreted IL-2 in the culture supernatant was measured using a highly sensitive enzyme-linked immunosorbent assay (ELISA). […] Assays for effects on cell viability and for specificity, assayed in the absence of gliadin peptide or in the presence of a stimulating anti-CD3 antibody, were performed. Unless otherwise noted, the stereochemistry shown below represents the relative configuration. Further, unless otherwise noted, compounds were tested as the trans racemate.

Chain of HLA-DQ2 (P01920 33-261 limits assumed, other chains not shown): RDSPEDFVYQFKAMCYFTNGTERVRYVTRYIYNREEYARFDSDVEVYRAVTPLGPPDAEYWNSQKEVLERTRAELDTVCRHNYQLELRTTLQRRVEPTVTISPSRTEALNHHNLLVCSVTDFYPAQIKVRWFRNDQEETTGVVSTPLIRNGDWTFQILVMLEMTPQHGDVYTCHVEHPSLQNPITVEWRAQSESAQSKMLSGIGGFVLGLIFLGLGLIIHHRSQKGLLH

Row | % Inh at 200 uM | SMILES
1 | A (A=≥75%) | O=C(CSC1CCCC1)N1CCN(C(=O)C2CC2c2cccs2)CC1 (stereo not shown) [Example 14]
2 | C (C=25-49%) | NC(=O)c1ccc(SCC(=O)N2CCN(C(=O)[C@@H]3C[C@H]3c3ccccc3)CC2)cc1 (relative stereo) [Example 85, 4-((2-Oxo-2-(4-(trans-2-phenylcyclopropanecarbonyl)piperazin-1-yl)ethyl)thio)benzamide]
3 | A (A=≥75%) | O=C(CSC1CCCC1)N1CCN(C(=O)[C@H]2C[C@@H]2c2ccccc2Cl)CC1 [Example 36]
4 | C (C=25-49%) | O=C(COC1CC1)N1CCN(C(=O)[C@@H]2C[C@H]2c2ccccc2)CC1 (racemic) [Example 38, 2-Cyclopropoxy-1-(4-(trans-2-phenylcyclopropanecarbonyl)piperazin-1-yl) ethanone]
